Data: patent US20130123184A1, “METHODS FOR […] OF HUMAN FETAL HEMOGLOBIN” (National Institutes of Health, priority 2007, published 2013)
Entries after “also recorded” stand apart in the source; their conditions may differ.

Tests used:
[1] = tested on: human β globin gene expression; test: erythroid colony forming unit (CFUe) assay, real-time PCR of human β globin gene expression; assay type: cell-based; conditions: 0.185 nM or 1.85 nM; relative to mouse α levels and control
Procedure: (§1) Experiments were performed with mice that are transgenic for a yeast artificial chromosome that contains the full human β-globin locus. […] However mice do have the appropriate transcription factors to interpret and express the human globin locus.
(§2) To determine if romidepsin alters human globin expression erythroid colony forming unit assays were conducted. This involved extracting fetal liver cells from the developing embryo, at a time when both γ and β globin are expressed. Cells were then cultured in a semi-solid media (methyl-cellulose) containing growth factors (SCF and Epo) with or without romidepsin. We harvested CFUe colonies at 2 days of culture (a pool of 10 from each treatment, each treatment was performed in duplicate) and performed an immediate cell lysis and cDNA amplification. The cDNA was then subjected to real-time PCR to determine levels of mouse α, human γ and human β globin gene expression. The cells were treated with a range of romidepsin concentrations from 0.185 nM to 18.5 nM, and the colony assay was performed on 6 separate occasions.
(§3) The results (0.185 nM or 1.85 nM romidepsin) are presented in FIG. 1 relative to mouse α levels, and relative to the control performed in each particular experiment. […] When the 0.185 nM and 1.85 nM data are combined there is a 130-fold increase in γ globin expression, as compared to mouse α globin expression and untreated cells.

[2] = tested on: human γ globin gene expression; test: erythroid colony forming unit (CFUe) assay, real-time PCR of human γ globin gene expression; assay type: cell-based, mouse
Procedure: as §1, §2, §3

fetal liver cells = test: toxicity analysis of CFUe colonies (number and size of colonies); assay type: cell-based, mouse
Procedure: as §2
Each colony was also analyzed for toxicity effects. […] Thus globin analysis at this dose is not presented.

fetal hemoglobin = test: circulating fetal hemoglobin levels in phase II clinical trial patients (CTCL and PTCL); assay type: in vivo, human; conditions: at least two months, 44 patients evaluated
Procedure: As part of an ongoing phase II clinical trial into the effects of romidepsin in patients with cutaneous (CTCL) and peripheral (PTCL) T-cell lymphoma, the levels of circulating fetal hemoglobin were determined. From a total of 53 patients in the trial, 44 were evaluated. Romidepsin was administered as a 4 hour infusion on days 1, 8, and 15 of a 28 day cycle with a dose of 14 mg/m^2. Fetal hemoglobin levels were measured during at least two months of treatment with romidepsin. Fetal hemoglobin levels were expressed first as a percent of the patient's total hemoglobin and then corrected (by multiplying the total hemoglobin by percent fetal hemoglobin).

[3] = fold increase in fetal hemoglobin 0-2, 14 mg/m^2 4 hour infusion days 1, 8, 15 of 28 day cycle
[4] = fold increase in fetal hemoglobin 2-5, 14 mg/m^2
[5] = fold increase in fetal hemoglobin 5-10, 14 mg/m^2
[6] = fold increase in fetal hemoglobin 10-20, 14 mg/m^2
[7] = fold increase in fetal hemoglobin >2, 14 mg/m^2
[8] = fold increase in fetal hemoglobin >5, 14 mg/m^2
[9] = fold increase in fetal hemoglobin >10, 14 mg/m^2
[10] = fold increase in fetal hemoglobin >20, 14 mg/m^2

C/C=C1\NC(=O)[C@H]2CSSCC/C=C/[C@H](CC(=O)N[C@H](C(C)C)C(=O)N2)OC(=O)[C@H](C(C)C)NC1=O [romidepsin, (1S,4S,10S,16E,21R)-7-[(2Z)-ethylidene]-4,21-diisopropyl-2-oxa-12,13-dithia-5,8,20,23-tetraazabicyclo[8.7.6]tricos-16-ene-3,6,9,19,22-pentanone]
β globin gene expression following romidepsin treatment [1]: not affected; also recorded: no change
fold increase in γ globin expression ([2]; 0.185 nM and 1.85 nM data combined, compared to mouse α globin expression and untreated cells, transgenic fetal liver CFUe colonies, 2 days of culture, mean±SEM, n=6): 130 fold
γ globin gene expression following romidepsin treatment ([2]; 0.185 nM or 1.85 nM, relative to mouse α levels and control): increase; also recorded: up-regulation
expression of human globin at the highest doses ([2]; highest doses of romidepsin): lower
total number of colonies or size of CFUe (fetal liver cells; 0.185 nM and 1.85 nM): no differences
toxicity to the fetal liver cells (fetal liver cells; 18.5 nM, accurate data not gathered): toxic
% of patients (fetal hemoglobin; [3]): 23%
Number of patients (fetal hemoglobin; [3]): 10
% of patients (fetal hemoglobin; [4]): 23%
Number of patients (fetal hemoglobin; [4]): 10
% of patients (fetal hemoglobin; [5]): 20%
Number of patients (fetal hemoglobin; [5]): 9
% of patients (fetal hemoglobin; [6]): 23%
Number of patients (fetal hemoglobin; [6]): 10
% of patients (fetal hemoglobin; [7]): 77%
Number of patients (fetal hemoglobin; [7]): 34
% of patients (fetal hemoglobin; [8]): 55%
Number of patients (fetal hemoglobin; [8]): 24
% of patients (fetal hemoglobin; [9]): 34%
Number of patients (fetal hemoglobin; [9]): 15
% of patients (fetal hemoglobin; [10]): 11%
Number of patients (fetal hemoglobin; [10]): 5
